System: TgIF2α
Assay: Western blot of TgIF2α phosphorylation
Assay type: cell-based, Toxoplasma gondii
Details: wild-type parasites treated with the ionophore
Experimental: In order to confirm that the TgIF2α-S71A clone could not be phosphorylated under normal physiological condition, a Western blot of lysates from parasites treated with the ionophore A23187 was carried out using antisera that specifically recognizes TgIF2α which is phosphorylated at ser-71 or total TgIF2α protein (Narasimhan et al., 2008b; Sullivan Jr. et al., 2004b). Referring now to FIG. 1C, equal amounts of protein lysates from WT or TgIF2α-S71A tachyzoites were resolved on a 4-12% polyacrylamide gel and transferred to a membrane for immunoblotting with antibody that specifically recognizes TgIF2α phosphorylated at ser-71 (TgIF2α-P) or total TgIF2α protein. […]
Next addressed was whether TgIF2K-D is required for induced TgIF2α phosphorylation when the parasite is outside of the host cell. Referring now to FIG. 9A, TgIF2α phosphorylation was analyzed by separating cell lysates via denaturing SDS-PAGE, followed by western blotting using antibodies to total TgIF2α or phosphorylated TgIF2α (TgIF2α˜P). […]
Phosphorylation of TgIF2α was monitored by Western blotting performed in accordance with standard methods. […]
Western blot analyses of TgIF2α phosphorylation were carried out as previously described. […] HA-tagged proteins were detected by western blot analyses after resolving parasite lysate on a 3-8% Tris-acetate polyacrylamide gradient gel. […]

CNc1ccc2oc(C[C@H]3O[C@@]4(CC[C@H]3C)O[C@H]([C@H](C)C(=O)c3ccc[nH]3)[C@H](C)C[C@H]4C)nc2c1C(=O)O [A23187]
induction of TgIF2α phosphorylation: potent inducer

Source: patent publication US8962265B2, “Mutant parasites for use as vaccines and platforms for screening for compounds” (Indiana University Research and Technology Corp., priority 2010, dated 2015)
